Experimental data published in patent US20230051268A1, “USE OF L[…] TREATING INSOMNIA” (Eisai R&D Management Co., Ltd., priority 2019, published 2023).
Values joined by “and” are separate entries in the source; they are usually repeats but may differ in a detail not shown here. Identical values can stand only once. Like-named read-outs stand apart in the source and are kept apart here. Marks after values point to notes of the source that are not given here.

Key:
[1] = Safety and tolerability assessment (TEAEs, ECGs, vital signs, laboratory tests) after single 10 mg dose; format: in vivo, human
Procedure: (§1) On Day 1, the subjects were administered a single oral 10 mg dose of lemborexant with approximately 240 mL of water in the morning after an overnight fast. No food was allowed for at least 4 hours postdose. Water was allowed as desired except for 1 hour before and after drug administration.
Safety was assessed by monitoring and documenting treat-emergent adverse events (TEAEs), ECGs, vital signs, weight, physical examinations, and clinical laboratory tests (urinalysis, hematology, and blood chemistry).

[2] = Plasma protein binding (unbound fraction) by equilibrium dialysis and LC-MS/MS, samples 1 and 24 hours postdose; format: in vitro ADME; details: human, oral, 10 mg, lemborexant 10 mg single oral dose, geometric mean (% CV)
Procedure: (§2) The blood samples for PK assessments were collected at prespecified intervals up to 312 hours postdose administration. In addition, the blood samples for plasma protein binding assessments of lemborexant were collected from each subject at 2 time points; approximately 1 hour and 24 hours postdose. The subjects were discharged on Day 14 of the study. The end of the study was the date of the last study visit for the last subject.
(§3) Blood samples (4 mL each) for PK assessments of lemborexant and its metabolites (M4, M9, and M10) were collected at predose (0 hour), 0.5, 1, 1.5, 2, 3, 4, 6, 8, 12, 24, 48, 72, 96, 120, 144, 168, 216, 264, and 312 hours postdose. In addition, blood samples (12 mL per time point) for protein binding of lemborexant and its metabolites (M4, M9, and M10) were collected at 1 and 24 hours postdose matching the PK sample collection at those time points.
(§4) Total mean plasma concentrations of lemborexant and lemborexant metabolites (M4, M9, and M10) were measured by validated liquid chromatography with tandem mass spectrometry (LC-MS/MS). Unbound lemborexant concentrations of lemborexant, M4, M9, and M10 were also measured using a similar validated LC-MS/MS method following equilibrium dialysis.

[3] = Single-dose pharmacokinetic study of lemborexant and metabolites M4, M9, M10 in subjects with mild or moderate hepatic impairment and healthy controls (plasma, LC-MS/MS); format: in vivo, human; details: for Ratio (%) (Test/Ref) of geometric mean AUC(0-inf) / Ratio (%) (Test/Ref) of geometric mean AUC(0-t) / Ratio (%) (Test/Ref) of geometric mean Cmax: lemborexant 10 mg single dose; for half-life / AUC(0-inf) / Vd/F / Cmax / AUC(0-t) / AUCu / CL/F / CLu/F: geometric mean (% CV); for Vd/F: read-out: Vz/F
Procedure: A multicenter, single-dose, open-label, parallel-group study in subjects with mild or moderate hepatic impairment and matched (with regard to age [±10 years], sex, and body mass index [BMI, ±20%]) healthy subjects as controls was performed.
The primary objective of the study was to assess the effect of mild and moderate hepatic impairment on the PK of lemborexant after a single-dose administration.
Secondary objectives of the study were: to evaluate the effects of hepatic impairment on the PK of lemborexant metabolites M4, M9, and M10; to evaluate the relationship between the PK parameters of lemborexant and its metabolites and the Child-Pugh classification score, serum albumin, total bilirubin, and PT; and to assess safety and tolerability of lemborexant following a single-dose administration in subjects with mild or moderate hepatic impairment and healthy control subjects.
as §1, §2, §3, §4

[4] = human, plasma, po, 10 mg, lemborexant 10 mg single oral dose, normal hepatic function (n = 8)
[5] = lemborexant 10 mg single oral dose, mild hepatic impairment (n = 7)
[6] = lemborexant 10 mg single oral dose, moderate hepatic impairment (n = 6)
[7] = lemborexant 10 mg single oral dose, normal hepatic function (n = 8)
[8] = moderate hepatic impairment, 10 mg

Cc1ncc(OC[C@@]2(c3cccc(F)c3)C[C@H]2C(=O)Nc2ccc(F)cn2)c(C)n1 [lemborexant, (1R,2S)-2-(((2,4-dimethylpyrimidin-5-yl)oxy)methyl)-2-(3-fluorophenyl)-N-(5-fluoropyridin-2-yl)cyclopropanecarboxamide]
subjects who experienced a TEAE ([1]; Class A (mild hepatic impairment)): 7 (87.5%) subjects (%) | subjects who experienced a TEAE ([1]; Class B (moderate hepatic impairment)): 6 (75.0%) subjects (%) | subjects who experienced a TEAE ([1]; Healthy Controls): 7 (87.5%) subjects (%) | subjects who experienced a TEAE ([1]; all 24 subjects): 20 (83.3%) subjects (%) | TEAEs potentially related to cataplexy ([1]; all cohorts): no TEAEs potentially related to cataplexy | TEAEs that led to subject discontinuation ([1]; all cohorts): none | severity of TEAEs ([1]; all cohorts): mild in severity | SAEs reported ([1]; all cohorts, single 10 mg dose): No SAEs were reported | fraction unbound ([2]; mild hepatic impairment (n = 8)): 0.063 | fraction unbound ([2]; moderate hepatic impairment (n = 8)): 0.065 | fraction unbound ([2]; normal hepatic function (n = 8)): 0.0597 | Ratio (%) (Test/Ref) of geometric mean AUC(0-inf) ([3]; Mild: Normal): 125.03% | Ratio (%) (Test/Ref) of geometric mean AUC(0-t) ([3]; Mild: Normal): 131.91% | Ratio (%) (Test/Ref) of geometric mean Cmax ([3]; Mild: Normal): 157.86% | Ratio (%) (Test/Ref) of geometric mean AUC(0-inf) ([3]; Moderate: Normal): 153.56% | Ratio (%) (Test/Ref) of geometric mean AUC(0-t) ([3]; Moderate: Normal): 149.52% | Ratio (%) (Test/Ref) of geometric mean Cmax ([3]; Moderate: Normal): 122.20% | Tmax ([3]; human, plasma, oral, 10 mg, normal, mild and moderate cohorts, 10 mg tablet, read-out: median tmax across cohorts): 1 to 1.25 h | half-life ([3]; human, plasma, po, 10 mg, lemborexant 10 mg single oral dose, mild hepatic impairment (lemborexant n = 7)): 73.7 h | AUC(0-inf) ([3]; human, plasma, po, 10 mg, lemborexant 10 mg single oral dose, mild hepatic impairment (lemborexant n = 7), read-out: AUC(0-inf)): 567 ng·h/mL | Vd/F ([3]; human, plasma, po, 10 mg, lemborexant 10 mg single oral dose, mild hepatic impairment (n = 7)): 1880 L | Cmax ([3]; human, plasma, po, 10 mg, lemborexant 10 mg single oral dose, mild hepatic impairment (n = 8)): 62.9 ng/mL | AUC(0-t) ([3]; human, plasma, po, 10 mg, lemborexant 10 mg single oral dose, mild hepatic impairment (n = 8), read-out: AUC(0-t)): 574 ng·h/mL | Tmax ([3]; human, plasma, po, 10 mg, lemborexant 10 mg single oral dose, mild hepatic impairment (n = 8), median (range), read-out: tmax): 1 h | half-life ([3]; human, plasma, po, 10 mg, lemborexant 10 mg single oral dose, moderate hepatic impairment (lemborexant n = 6)): 105 h | AUC(0-inf) ([3]; human, plasma, po, 10 mg, lemborexant 10 mg single oral dose, moderate hepatic impairment (lemborexant n = 6), read-out: AUC(0-inf)): 696 ng·h/mL | Vd/F ([3]; human, plasma, po, 10 mg, lemborexant 10 mg single oral dose, moderate hepatic impairment (n = 6)): 2170 L | Cmax ([3]; human, plasma, po, 10 mg, lemborexant 10 mg single oral dose, moderate hepatic impairment (n = 8)): 48.7 ng/mL | AUC(0-t) ([3]; human, plasma, po, 10 mg, lemborexant 10 mg single oral dose, moderate hepatic impairment (n = 8), read-out: AUC(0-t)): 651 ng·h/mL | Tmax ([3]; human, plasma, po, 10 mg, lemborexant 10 mg single oral dose, moderate hepatic impairment (n = 8), median (range), read-out: tmax): 1 h | Cmax [3, 4]: 39.8 ng/mL | half-life [3, 4]: 67 h | AUC(0-inf) ([3]; human, plasma, po, 10 mg, lemborexant 10 mg single oral dose, normal hepatic function (n = 8), read-out: AUC(0-inf)): 453 ng·h/mL | AUC(0-t) ([3]; human, plasma, po, 10 mg, lemborexant 10 mg single oral dose, normal hepatic function (n = 8), read-out: AUC(0-t)): 435 ng·h/mL | Vd/F [3, 4]: 2130 L | Tmax ([3]; human, plasma, po, 10 mg, lemborexant 10 mg single oral dose, normal hepatic function (n = 8), median (range), read-out: tmax): 1.25 h | AUC(0-inf) ([3]; lemborexant 10 mg single oral dose, mild hepatic impairment (lemborexant n = 7)): 567 ng·h/mL | AUCu [3, 5]: 34.9 (52.6)^b h * ng/mL | CL/F [3, 5]: 17.6 L/h and 17.6 (52.0)^b L/h | CLu/F [3, 5]: 287 (52.6)^b L/h | AUC(0-t) ([3]; lemborexant 10 mg single oral dose, mild hepatic impairment (n = 8)): 574 ng·h/mL | AUC(0-inf) ([3]; lemborexant 10 mg single oral dose, moderate hepatic impairment (lemborexant n = 6)): 696 ng·h/mL | AUCu [3, 6]: 45.1 (42.6)^c h * ng/mL | CL/F [3, 6]: 14.4 L/h and 14.4 (34.6)^c L/h | CLu/F [3, 6]: 222 (42.6)^c L/h | AUC(0-t) ([3]; lemborexant 10 mg single oral dose, moderate hepatic impairment (n = 8)): 651 ng·h/mL | AUCu [3, 7]: 27.1 (36.8) h * ng/mL | CL/F [3, 7]: 22.1 L/h and 22.1 (33.9) L/h | decrease of total body clearance compared with healthy subjects ([3]; mild hepatic impairment, 10 mg): 20% | increase of AUC(0-inf) compared to healthy subjects ([3]; mild hepatic impairment, 10 mg): 25% | increase of Cmax compared to healthy subjects ([3]; mild hepatic impairment, 10 mg): 58% | exposure (geometric mean Cmax, AUC) compared with healthy control subjects ([3]; mild or moderate hepatic impairment, single 10-mg tablet): higher | decrease of total body clearance compared with healthy subjects [3, 8]: 35% | increase of AUC(0-inf) compared to healthy subjects [3, 8]: 54% | increase of Cmax compared to healthy subjects [3, 8]: 22% | effects of mild and moderate hepatic impairment on PK (scatter plots, linear regression) ([3]; vs Child-Pugh score, serum albumin, total bilirubin, MELD score, PT): small and similar
